Source: patent publication US6835382B2, “Ii peptide therapeutics to enhance antigen presentation” (University of Massachusetts, priority 1996, dated 2004)
Non-standard residues stand in square brackets, D forms with d. hArg = N=C(N)NCCCC[C@H](N)C(=O)O; Cit = NC(=O)NCCC[C@H](N)C(=O)O; Orn = NCCC[C@H](N)C(=O)O

Tested on: murine E^k MHC class II allele
Experiment: simultaneous assay, E^k allele (CH27 APC, TPc9.1 T hybridoma, THMCC82-103 or PGCC81-104)
Format: cell-based
In short: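 Antigenic peptide, mitomycin C-treated APC, effector compound and allele-restricted T hybridoma cultured together for 24 h. Supernatant then transferred to interleukin-dependent HT-2 cells. T cell activation quantified as [3H]TdR uptake by HT-2 cells.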

[1] = Table 8, AE peptide 4 μM (third), supernatant 1:4
[2] = Table 8, AE peptide 16 μM (second), supernatant 1:4
[3] = Table 8, AE peptide 64 μM (first), supernatant 1:4
[4] = Table 1, AE peptide 16 μM (second value), 0.075 μM THMCC82-103, supernatant 1:2
[5] = Table 1, AE peptide 64 μM (first value), 0.075 μM THMCC82-103, supernatant 1:2
[6] = Table 4, AE109 homolog 64 μM, supernatant 1:2

Substance | Times Baseline Response, E^k [4] | Times Baseline Response, E^k [5] | Times Baseline Response, E^k [6] | other results
Ac-YRMKL hydrP KSAK-NH2 (Ac-YRMKL[hydrP]KSAK-NH2) [AE143] |  |  |  | Times Baseline Response, E^k [1]: 0.98; Times Baseline Response, E^k [2]: 1.5,; Times Baseline Response, E^k [3]: 4.2,
Ac-YRMKL-NH2 [AE116] | 3.2 | 15.5 |  | 
Ac-YRMKLP-NH2 [AE115] | 3.8 | 18.6 |  | 
Ac-YRMKLPK-NH2 [AE113] | 6.7 | 15.5 |  | Times Baseline Response, Ek (Table 3, AE peptide 64 μM, supernatant 1:4, values reduced relative to E^d by a factor of 10): 24.9
Ac-YRMKLPKSAK-NH2 [AE109] | 2.2 | 6.9 | 2.3 | Times Baseline Response, E^k (Table 2, AE peptide 64 μM, 0.05 μM PGCC81-104, supernatant 1:2): 43.7; Times Baseline Response, E^k [1]: 1.0; Times Baseline Response, E^k [2]: 1.5,; Times Baseline Response, E^k [3]: 4.3,; Times Baseline Response, E^k (Table 10, AE peptide 64 μM, supernatant 1:2 (first value)): 66.0; Times Baseline Response, E^k (Table 10, AE peptide 64 μM, supernatant 1:4 (second value)): 56.3
Ac-Y[Cit]MKLPKSAK-NH2 [AE131] |  |  | 0.8 | Times Baseline Response, E^k (Table 15, AE peptide 16 μM, supernatant 1:4): 4.1
Ac-Y[Orn]MKLPKSAK-NH2 [AE130] |  |  | 1.1 | 
Ac-Y[hArg]MKLPKSAK-NH2 [AE132] |  |  | 5.5 | Times Baseline Response, E^k (Table 16, AE peptide 4 μM, supernatant 1:8): 2.2
Ac-l RMKLPK-NH2 [AE160] |  |  |  | Times Baseline Response, E^k (Table 11, AE peptide 64 μM, supernatant 1:4): 1.7
YRMKLPKSAKPVSQMR [AE101] | 0.8 | 1.0 |  | 
